Laboratory results: US6887895B2, “Pseudolaric acid-B derivatives, their preparation and pharmaceutical compositions” (Shanghai Institute of Materia Medica Chinese Academy of …, priority 2001, dated 2005)
In brackets after ≈: the same amount, converted by molar mass. Where two headings read alike, the source gives them in different places. Blank lines part the entries; values can stand above or below the molecule they belong to.

Columns and labels:
[1] = system: human microvascular endothelial cells (HMEC); assay: HMEC proliferation assay (SRB), anti-angiogenic activity; assay type: cell-based
Experimental: (§1) To evaluate the anti-tumor pharmacological activity of the compounds of the invention, the anti-proliferation activity thereof was assayed using P388 murin leukemia cells and A549 human lung adenocarcinoma cells; the anti-angiogenic activity, a newer target of antitumor, was measured using human microvascular endothelial cells (HMEC). Pseudolarix acid-B and hydroxycamptothecin were used as reference compounds in the evaluation.
(§2) P388, A549 and HMEC Proliferation Assay
(§3) Materials: DMEM was purchased from Gibco (Life Technologies, Grand Island, N.Y., USA). Sulforodamine B (SRB) and MTT were obtained from Sigma; TCA […] and Tris base buffer were analytical pure products made in China.
(§4) SRB assay: Tumor (A549 and HMEC) cells in logarithmic growth were plated in DMEM media in the wells of a 96-well plate (5×10^3 cells/90 μL/well) and serial dilutions of the compounds (10 μL) prepared in medium were added. Experiments at each concentration of compounds were performed in triplicate with controls of normal saline and cell-free withered wells. The plates were incubated at 37° C., 5% CO2, for 72 hr. The media were decanted and cells were fixed with cold (4° C.) 10% trichloroacetic acid, followed by incubation at 4° C. for 1 hr. Then plates were washed with deionised water five times and allowed to air dry and stained by addition of 100 μL/well SRB solution [0.4% SRB (Sigma) in 1% acetic acid (W/V)] for 15 min. Following staining, plates were quickly washed five times with 1% acetic acid to remove unbound dye, and allowed to air dry. Bound dye was solubilized with Tris buffer (pH 10.5) prior to reading plates. The OD was measured with a multiwell spectrophotometer (VERSAmax, Molecular Devices, USA) at a wavelength of 520 nm.
(§5) The rate of inhibition on the growth of cancer cells was calculated by the formula: Rate of growth inhibition=[1−(A520 treated/A520 control)]×100%
The result was also expressed as IC50 (the drug concentration reducing by 50% the absorbance in treated cells, with respect to untreated cells) that was calculated by Logit method. […]

[2] = system: P388 murin leukemia cells; assay: P388 proliferation assay (MTT); assay type: cell-based, murine
Experimental: as §1, §2, §3
MTT assay: P388 cells were seeded at a density of 1.5×10^5/ml into wells of 96-well plates and incubated with complete medium. After 24 hr, serial dilutions of the compounds (10 μL) prepared in medium were added. Experiments at each concentration of compounds were performed in triplicate with controls of cell-free withered wells and cell-free withered wells at corresponding concentration of compounds, if it is colored. The plates were incubated at 37° C., 5% CO2, for 48 hr. Then, 20 μL aliquots of MTT (Sigma) solution (5 mg/mL) in saline were added directly to all the appropriate wells. The culture was continuously incubated for 4 hr. Then 50 μL “triplex solution” (10% SDS-5% isobutanol- 0.01M HCl) was added into each well. After the plates were incubated at 37° C. overnight, the values of absorbance at 520 nm were measured by using a plate reader (VERSA Max, Molecular Devices).
as §5
(§6) The result was also expressed as IC50 (the drug concentration reducing by 50% the absorbance in treated cells, with respect to untreated cells) that was calculated by Logit method. The mean IC50 was determined according to the data from three independent tests.

[3] = system: A549 human lung adenocarcinoma cells; assay: A549 proliferation assay (SRB); assay type: cell-based
Experimental: as §1, §2, §3, §4, §5, §6

Candida albicans = assay: Antifungal screening, liquid diluting method; assay type: cell-based
Source text: Screening on Antifungal Activities The action on Candida albicans was observed using liquid diluting method. The drug concentration in the tube in which no growth of fungus observed is the minimun inhibition concentration.

Trichophyton rubrum = assay: Antifungal screening, agar diluting method; assay type: cell-based
Source text: Screening on Antifungal Activities
The action on Trichophyton rubrum was observed using agar diluting method. The drug concentration in the Petridish on which no growth of fungus observed is the minimun inhibition concentration.

Sarcoma 180 cell = assay: Sarcoma 180 tumor growth inhibition in mice; assay type: in vivo, Kunming strain female mice; conditions: for Tumor weight: S-180 mice; for Inhibition %: tumor growth vs control
Experimental: (§7) 30 Kunming strain female mice weighing 18-22 g were used. Suspensions of well grown Sarcoma 180 cell were implanted subcutaneously into the right axilla region of the mice, about 4.5-5×10^6 cells/mouse. The animals were grouped randomly 24 hours after the implantation. Daily treatment with drugs or normal saline commenced 1 day after implantation of S-180 cells. Mice were administered by i.p. injection with vehicle or compounds once a day for consecutive 6 days. All the mice were euthanized after the last administration. The mice and the tumors were weighed. The average weights of tumors of each group were calculated and rate of inhibition of tumor growth in vivo was calculated using the following formula: [formula]

[4] = Body weight of Sarcoma 180-bearing mice under treatment; assay type: in vivo, Kunming strain female mice
Experimental: as §7

[5] = Mus musculus, P388 cells, MTT, 48 hr, read-out: IC50
[6] = Homo sapiens, A549 cells, SRB, 72 hr, read-out: IC50
[7] = 5 mg/kg i.p. once a day for 6 days
[8] = 10 mg/kg i.p. once a day for 6 days
[9] = 15 mg/kg i.p. once a day for 6 days

SMILES: CC[C@@]1(O)C(=O)OCc2c1cc1n(c2=O)Cc2cc3cc(O)ccc3nc2-1 [hydroxycamptothecin]
IC50 ([1]; Homo sapiens, HMEC, 72 h): 470 nM

SMILES: CC(=O)O[C@@]12CCC(C(=O)OCC3CCCCC3)=CC[C@@]13CC[C@@H]2C(C)(/C=C/C=C(\C)C(=O)O)OC3=O (stereo partly shown) [PEX-31Y]
IC50 ([2]; Mus musculus, P388, 48 h): < 0.1 nM | IC50 ([3]; Homo sapiens, A549, 72 h): < 0.1 nM

IC50 [2, 5]: < 0.1 nM | IC50 [3, 6]: 55 nM | MIC (Candida albicans; Candida albicans, read-out: MIC (μg/ml) (Candida albicans)): 6.25 µg/mL (≈ 12.5 µM) | MIC (Trichophyton rubrum; Trichophyton rubrum, read-out: MIC (μg/ml) (Trichophyton rubrum)): 12.5 µg/mL (≈ 25.1 µM)
SMILES: CC(=O)O[C@@]12CCC(C(=O)OCc3ccco3)=CC[C@@]13CC[C@@H]2C(C)(/C=C/C=C(\C)C(=O)O)OC3=O (stereo partly shown) [PEX-25Y]
IC50 ([1]; Homo sapiens, HMEC cells, SRB, 72 hr, read-out: IC50): 1 nM | Tumor weight (Sarcoma 180 cell; [7]): 0.30 ± 0.23 g | Inhibition % (Sarcoma 180 cell; [7]): 64.3% | Tumor weight (Sarcoma 180 cell; [8]): 0.26 ± 0.11 g | Inhibition % (Sarcoma 180 cell; [8]): 69.0% | Tumor weight (Sarcoma 180 cell; [9]): 0.28 ± 0.13 g | Inhibition % (Sarcoma 180 cell; [9]): 66.7% | Body weight (g) At last ([4]; 5 mg/kg i.p. once a day for 6 days, beginning 20.4 g): 21.1 g | Body weight (g) At last ([4]; 10 mg/kg i.p. once a day for 6 days, beginning 20.4 g): 19.7 g | Body weight (g) At last ([4]; 15 mg/kg i.p. once a day for 6 days, beginning 20.5 g): 21.2 g

IC50 ([2]; P388 cells, MTT, 48 hr, read-out: IC50): 0.83 nM | IC50 ([3]; A549 cells, SRB, 72 hr, read-out: IC50): 28 nM | MIC (μg/ml) (Candida albicans) (Candida albicans): 12.5 µg/mL (≈ 28.9 µM) | MIC (μg/ml) (Trichophyton rubrum) (Trichophyton rubrum): 50.0 µg/mL (≈ 116 µM)
SMILES: COC(=O)C1=CC[C@@]23CC[C@@H]([C@@](C)(/C=C/C=C(\C)C(=O)O)OC2=O)[C@@]3(OC(C)=O)CC1 [Pseudolarix acid-B, pseudolaric acid B, reference compound]
IC50 ([1]; HMEC cells, SRB, 72 hr, read-out: IC50): 80 nM

IC50 [2, 5]: 0.26 nM | IC50 [3, 6]: 69 nM
SMILES: COC(=O)C1=CC[C@]23CC[C@H](C(C)(/C=C/C=C(\C)C(=O)O)OC2=O)[C@]3(OC(=O)Cc2ccc(Cl)cc2)CC1 (stereo partly shown) [PEX-24Y]

IC50 [3, 6]: 150 nM
SMILES: COC(=O)C1=CC[C@]23CC[C@H](C(C)(/C=C/C=C(\C)C(=O)Nc4cccc(O)c4)OC2=O)[C@]3(OC(C)=O)CC1 (stereo partly shown) [PEX-15Y]
